In publication PMC7767381, “Exploring the Anti-Cancer Mechanism of Novel 3,4′-Substituted Diaryl Guanidinium Derivatives” (Pharmaceuticals, 2020):
“Also recorded” adds a separate entry of the source.

How the values were obtained:
[1] = system: ERK phosphorylation (MAPK/ERK pathway); assay: Western immunoblot of ERK phosphorylation in HL-60 extracts; assay type: cell-based, human; conditions: HL-60, 5 µM, 16 h
Description: Thus, using Western immunoblot analysis of HL-60 extracts, we investigated the expression and phosphorylation levels of ERK (as an indication of ERK activation), which is the downstream effector of the Ras/BRAF signalling pathway (Figure 6).
HL60s were seeded in T25 flasks at 50 × 10^4 cells/mL and cells were treated with either vehicle [0.5% EtOH (v/v)], 1–4, 9 or 52 (5 µM), as well as 1 (10 µM as reported). After 16 h, cells were collected and washed with PBS. Cell pellets were re-suspended in cold cell lysis buffer (radio-immunoprecipitation assay buffer) supplemented with 1% phosphatase inhibitor cocktail 2 and 3 (Sigma) and 10% protease inhibitor (Roche). Cells were lysed for 30 min on ice. Protein concentration was then determined by BCA assay. Lysates were boiled with Laemmli sample buffer [Tris-HCL 50 mM (pH 6.7), glycerol 10% (w/v), sodium dodecyl sulphate 2% (w/v), bromophenol blue 0.02% (w/v)] containing DTT […] for 10 min at 90 °C. Moreover, 20 µg of lysates were resolved by sodium dodecyl sulphate polyacrylamide gel electrophoresis (SDS-PAGE) and transferred onto PVDF transfer membrane (EMD Millipore). Membranes were blocked with 5% non-fat milk and probed with primary antibodies for ERK and phospho-ERK (Cell Signalling). Anti-GAPDH was used as a loading control (Calbiochem).
Figure 6 Western immunoblot of HL-60 cell extracts following incubation with compounds 2, 3, 4, 9, 52 and 1 (as a control). HL60 cells were seeded at 2 × 10^5 cells/mL and were treated with either vehicle [0.5% EtOH (v/v)], compounds 52, 2, 9, 3 and 4 (5 µM) or compound 1 (5 and (*) 10 µM, as in reference) for 16 h. Cells were lysed and equal amounts of protein were loaded and separated on 15% SDS-PAGE gels, transferred to PVDF membrane and probed with antibodies against total and phosphorylated ERK. Anti-GAPDH was used as a loading control. Results are representative of 2 independent experiments.
HL-60 cells were seeded in T25 flasks at 50 x10^4 cells/mL and treated with either vehicle [0.5% […]
After 16 hours, cells were […]
collected and washed with PBS. Cell pellets were re-suspended in cold cell lysis buffer (radio-immunoprecipitation assay buffer) supplemented with 1% phosphatase inhibitor cocktail 2 and 3 (Sigma) and 10% protease inhibitor (Roche). Cells were lysed for 30 minutes on ice.
Protein concentration was then determined by BCA assay. Lysates were boiled with laemmli sample buffer [Tris-HCL 50 mM (pH 6.7), glycerol 10% (w/v), sodium dodecyl sulphate 2% (w/v), bromophenol blue 0.02% (w/v)] containing DTT […] for 10 min. at 90 °C. Also 20 µg of lysates were resolved by sodium dodecyl sulphate polyacrylamide gel electrophoresis (SDS - PAGE) and transferred onto PVDF transfer membrane (EMD Millipore). Membranes were blocked with 5% non-fat milk and probed with primary antibodies for ERK and phospho-ERK (Cell Signaling). Anti-GAPDH was used as a loading control (Calbiochem).

HL-60 cells = assay: alamarBlue cell viability assay, HL-60; assay type: cell-based; conditions: Homo sapiens, HL-60, 72 h, alamarBlue, 72 h; read-out: HL-60 IC50 ± SEM
From the text: Cell viability and proliferation assays were used to evaluate the in vitro cytotoxicity of all synthesised compounds in a variety of different cancer cell lines using the alamarBlue® viability assay and the results are presented in Table 1 and Table 2. The sensitivity of cancer cells to drugs can often be compromised by PIK3CA, Ras and BRAF mutations. To determine whether such mutations are critical to the efficacy of our new compounds we tested them in a range of cancerous cell lines expressing different mutations. Firstly, we used the HL-60 (human promyelocytic leukaemia, NRas mutated) cell line for general cytotoxicity screening of all compounds. […] Lastly, toxicity against MCF-10A, which is a non-tumorigenic epithelial cell line, was also assessed for one of the most promising compounds (4). The graphs representing the viability results with the HL-60, MCF-7, HeLa, HCT-116, and HKH-2 cancer cell lines for compound 1 and derivatives 2, 3, and 4 are shown in Figures S7–S10 (ESI).
Cells were counted and seeded in 96-well plates at a density of 2 × 10^5 cells/mL for HL-60, 2.5 × 10^4 cells/mL for MCF-7, MCF10A and HeLa, 1 × 10^5 cells/mL for HCT116 and HKH-2, all of them in their respective media. The 96-well plates were then treated with a 1:100 dilution of stock concentrations of drugs or EtOH (1% v/v)/DMSO (0.1% v/v) as vehicle control in triplicate. Three blank wells containing 200 µL RPMI with no cells were also set-up as blanks. After a 72 h incubation, 20 µL of alamarBlue was added to each well. The plates were incubated in darkness at 37 °C for 4–5 h using a Molecular Devices microplate reader, the fluorescence (F) was then read at an excitation wavelength of 544 nm and an emission wavelength of 590 nm. Cell viability was then determined by subtracting the mean blank fluorescence (Fb) from the treated sample fluorescence (Fs) and expressing this as a percentage of the fluorescence of the blanked vehicle control (Fc). […] The results were then plotted as a nonlinear regression, sigmoidal dose-response curves on Prism, from which the IC50 value for each drug was determined. […]
Pharmacy, TCD. It was maintained in Roswell Park Memorial Institute (RPMI) 1640 medium with stable glutamate (GlutaMax I) supplemented with 10% (v/v) fetal bovine serum (FBS), 1% (v/v) penicillin/ streptomycin (pen-strep) and 2 mM L-glutamine. […]
4.4. AlamarBlue ® Cell Viability Assay
Cells were counted and seeded in 96 well plates at a density of 2 × 10^5 cells/mL for HL-60, 2.5× 10^4 cells/mL for MCF-7, MCF10A and HeLa, 1 × 10^5 cells/mL for HCT116 and HKH-2, all of them in their respective media. The 96 well plates were then treated with a 1:100 dilution of stock concentrations of drugs or EtOH (1% v/v)/DMSO (0.1% v/v) as vehicle control in triplicate.
Three blank wells containing 200 µL media with no cells were also set-up as blanks. After a 72 h incubation, 20 µL of AlamarBlue was added to each well. The plates were incubated in darkness at 37 °C for 4-5 h. Using a Molecular Devices microplate reader, the fluorescence (F) was then read at an excitation wavelength of 544 nm and an emission wavelength of 590 nm.
Cell viability was then determined by subtracting the mean blank fluorescence (Fb) from the treated sample fluorescence (Fs) and expressing this as a percentage of the fluorescence of the blanked vehicle control (Fc). […] The results were […]
then plotted as a nonlinear regression, sigmoidal dose-response curves on Prism, from which the IC50 value for each drug was determined.
Fs − Fb x 100 = % Cell Viability
60 cell line in a dose-dependent manner.
(1 picture or pasted object on this page, not shown here)

SMILES	effect on ERK phosphorylation (Ras/BRAF pathway) [1]	IC50 (HL-60 cells)
Cl.Cl.N=C(N)Nc1ccc(Oc2cccc(NC(=N)Nc3ccc(Cl)c(C(F)(F)F)c3)c2)cn1 [Compound 2, 1-(4-Chloro-3-(trifluoromethyl)phenyl)-3-(3-((6-guanidinopyridin-3-yl)oxy)phenyl) guanidine dihydrochloride]	inhibiting ERK phosphorylation; also recorded: abrogates ERK activation	2360 ± 140 nM
Cl.N=C(N)Nc1ccc(Oc2cccc(Nc3ccc(Cl)c(C(F)(F)F)c3)c2)cc1 [Compound 3, 1-(4-(3-((4-Chloro-3-(trifluoromethyl)phenyl)amino)phenoxy)phenyl)guanidine hydrochloride]	do not appear to interfere with the Ras/BRAF signalling pathway; also recorded: do not act in the same way	–
Cl.N=C(N)Nc1ccc(Oc2cccc(Nc3ccc(Cl)c(C(F)(F)F)c3)c2)cn1 [Compound 4, 1-(5-(3-((4-Chloro-3-(trifluoromethyl)phenyl)amino)phenoxy)pyridin-2-yl)guanidine hydrochloride]	do not appear to interfere with the Ras/BRAF signalling pathway; also recorded: do not act in the same way	3480 ± 280 nM
